In brackets after ≈: the same amount, converted by molar mass.
How the values were obtained:
[1] = Acute oral LD50 in chicks; settings: chicken, in vivo
E. Coli [2] = test: U. Tract infections in mice (E. Coli); assay type: in vivo; settings: U. Tract infections (E. Coli), 2,5 mg × 10 days
Experimental: (§1) Some compounds of general formula Id were tested also in vivo.

B. Subtilis = test: antimicrobial activity, minimal inhibitory concentration, B. Subtilis; assay type: cell-based; settings: Bacillus subtilis
Experimental: (§2) The antimicrobial activity of some compounds according to the present invention was measured and the results are shown in the following Tables. The activity is indicated as the minimal inhibitory concentration in μg/ml.

Acute oral LD50 in mice = settings: mouse, in vivo
St. aur = test: Systemic St. aur infection in mice; assay type: in vivo; settings: systemic St. aur infection, 2,5 mg × 2 per day
Experimental: as §1

Salm. Typh. = test: antimicrobial activity, minimal inhibitory concentration, Salm. Typh.; assay type: cell-based; settings: read-out: minimal inhibitory concentration
Experimental: as §2

E. Coli [3] = test: antimicrobial activity, minimal inhibitory concentration, E. Coli; assay type: cell-based; settings: Escherichia coli
Experimental: as §2

Mycoplasma gallisept = test: antimicrobial activity, minimal inhibitory concentration, Mycoplasma gallisept; assay type: cell-based
Experimental: as §2

Staph. Aur. = test: antimicrobial activity, minimal inhibitory concentration, Staph. Aur.; assay type: cell-based
Experimental: as §2

E. Coli [4] = test: Systemic E. Coli infection in mice; assay type: in vivo; settings: systemic E. Coli infection, 1,25 mg × 2 per day
Experimental: as §1

[5] = growth promotion experiment with male turkeys for 4 weeks; assay type: in vivo; settings: P<0.001
Description: The results were statistically significant (P<0.001).

SMILES: CCOC(=O)NNC(=NO)c1c[n+]([O-])c2ccccc2[n+]1[O-] [Example 35, 2-(carbazinic acid ethyl ester)-carboxaldoxime-quinoxaline-1,4-dioxide]
- LD50 [1]: 1500 mg/kg
- Protection (E. Coli [2]): + (indicates protection >80%)
- MIC (B. Subtilis): 10 mg/L (≈ 32.5 µM)
- LD50 (Acute oral LD50 in mice): 4950 mg/kg
- Protection (St. aur): + (indicates protection >80%)
- MIC (Salm. Typh.): 10 to 25 mg/L (≈ 32.5 to 81.4 µM)
- MIC (E. Coli [3]): 40 to 50 mg/L (≈ 130 to 163 µM)
- MIC (Mycoplasma gallisept): 10 to 25 mg/L (≈ 32.5 to 81.4 µM)
- MIC (Staph. Aur.): 10 mg/L (≈ 32.5 µM)
- Protection (E. Coli [4]): + (indicates protection >80%)
- increase in weight gain ([5]; 30 g/ton in the feed): 18.7%
- increase in weight gain ([5]; 50 g/ton in the feed): 18.5%
- increase in weight gain ([5]; 75 g/ton in the feed): 16%
